{"source": "patent US7442373B2", "about": "(priority 2003, dated 2008)", "key": {"[1]": {"tested_on": "Bacillus anthracis spores", "set-up": "species or system Hartley guinea pigs", "settings": "guinea pig, in vivo"}, "Bacillus anthracis Ames": {"tested_on": "Bacillus anthracis Ames", "set-up": "species or system Swiss-Webster mice", "settings": "mouse, in vivo"}}, "data": [{"molecule": "O=C(O)c1cn(C2CC2)c2cc(N3CCNCC3)c(F)cc2c1=O", "note": "[ciprofloxacin]", "values": [{"measurement": "ED50 dose", "setting": "[1]", "result": 3, "unit": "mg/day"}, {"measurement": "protection at low dose 1.12 mg/day", "setting": "[1]", "result": "non-protective"}]}, {"molecule": "AVP-21D9", "values": [{"measurement": "animals protected", "setting": "Bacillus anthracis Ames", "result": 40, "unit": "%"}, {"measurement": "protection, antibody alone", "setting": "[1]; ip", "result": "provided protection and delayed the mean time of death"}]}]}
